In US8927771B2, “Pharmaceutically acceptable cocrystals of N-[2-(7-methoxyl-1-naphtyl)ethyl]acetamide and methods of their preparation” (Zentiva k.s., priority 2011, dated 2015):

Assays:
[1] = BCS classification system; cited from earlier work
[2] = suspensions in organic solvents (alcohols, ketones, esters, alkanes, aromatic hydrocarbons), 30° C., one week, Raman spectroscopy
Protocol: Samples of the agomelatine citric acid cocrystal were maturated as suspensions in a library of organic solvents including alcohols, ketones, esters, alkanes and aromatic hydrocarbons at a temperature of 30° C. for one week.

[3] = DVS, range of 20-80% RH
From the text: A sample of the agomelatine citric acid cocrystal was subjected to DVS analysis ([…] Vapor Sorption). The sample was placed on a microbalance in a controlled humidity chamber and subjected to two cycles of increasing humidity (red and green lines) and two cycles of decreasing humidity (blue and purple lines) as shown in FIG. 4.

[4] = slurried in water, Raman spectra
Protocol: A sample of the agomelatine citric acid cocrystal was slurried in water and the solid analysed by Raman spectroscopy at 20 minute intervals.

[5] = 90° C. in a glass capillary for 7 hours, X-ray powder diffraction
Protocol: A sample of the agomelatine citric acid cocrystal was heated to 90° C. in a glass capillary for 7 hours.

SMILES	BCS solubility class [1]	stability of the crystalline phase in suspension [2]	hygroscopicity [3]	change in mass ([3]; two cycles of increasing and two of decreasing humidity)	state of the solid in water slurry after 20 minutes ([4]; after 20 minutes)	state of the solid in water slurry after 40 minutes ([4]; after 40 minutes)	crystalline phase after heating [5]
COc1ccc2cccc(CCNC(C)=O)c2c1 [N-[2-(7-Methoxy-1-naphthyl)ethyl]acetamide]	high solubility drug						
COc1ccc2cccc(CCNC(C)=O)c2c1.O=C(O)CC(O)(CC(=O)O)C(=O)O [agomelatine citric acid cocrystal, N-[2-(7-methoxy-1-naphthyl)ethyl]acetamide Citric Acid Cocrystal]		generally stable	not particularly hygroscopic	less than 0.2%	near to complete dissolution of the citric acid	no further changes in the spectrum were observed	pure crystalline phase consistent with the agomelatine citric acid cocrystal
